Data taken from patent publication US8221975B2, “Method for detection of microorganism” (Morinaga Milk Industry Co., Ltd., priority 2007, dated 2012).

Assays:
[1] = system: Enterobacter sakazakii ATCC 6538P; experiment: MMS real-time PCR (79 bp) of EMA-treated Enterobacter sakazakii, Ct value; assay type: cell-based
Procedure: In the case where the real-time PCR is employed, changes in fluorescent intensities are generally noise levels and about zero if the number of amplification cycles is in the range of 1 to 10. Therefore, the intensities are regarded as sample blanks containing no amplification products. The standard deviation (SD) of the changes is calculated, and a value obtained by multiplying the SD value by 10 is defined as a threshold value. The number of PCR cycles in which a value larger than the threshold value is achieved for the first time referred to as “cycle threshold value (Ct value)”. Therefore, the larger the initial amount of a DNA template in a PCR reaction solution, the smaller the Ct value, while the smaller the amount of the template DNA, the larger the Ct value. Even if the amounts of the template DNA are the same, the higher the proportion of the template where a target region of PCR has been cleaved, the larger the Ct value in PCR reactions for the region.
A Gram-negative bacterium, Enterobacter sakazakii (Enterobacter sakazakii ATCC 6538P; hereinafter, abbreviated as “sakazakii” in some cases), was cultured in brain-heart infusion (BHI) broth at 37° C., and 5 ml of the culture medium in the logarithmic growth phase was centrifuged at 8,000×g for 15 minutes at 4° C., followed by removal of the supernatant. 5 ml of physiological saline was added to the bacterial cells, and the whole was vigorously stirred and diluted 10-fold. Thus, a live cell suspension was prepared. The number of the live cells in the live cell suspension was determined in a standard agar plate medium and found to be 8.38±0.25 log10 cfu/ml.
The live cell suspension (1 ml) was placed in a 1.5-ml microtube, and the microtube was immersed in boiling water for 2 minutes and immediately cooled with ice water, to thereby prepare a injured cell suspension. The cells in the suspension probably include small numbers of live cells and dead cells but include mainly injured cells. Therefore, the cells are simply referred to as “injured cells”. Note that the method of the present invention is originally intended to detect live cells, and microorganism cells distinguished from live cells may be injured cells or dead cells.
Ethidium monoazide (EMA) was added to the live cell suspension and injured cell suspension of sakazakii prepared above at a final concentration of 0, 10, 25, or 100 μg/ml, and the suspensions were allowed to stand under shading at 4° C. for 10 minutes. The suspensions were placed on ice and irradiated for 5 minutes with a 500-W visible light (FLOOD PRF: 100 V, 500 W, IWASAKI ELECTRIC CO., LTD., wavelength: 500 to 700 nm) at a distance of 20 cm from the suspensions. Then, the suspensions were centrifuged at 15,000×g for 10 minutes at 4° C., and the supernatants were removed. An equal volume of physiological saline was added thereto, and the suspensions were stirred and centrifuged while cooling at 15,000×g for 10 minutes at 4° C., followed by removal of the supernatants. An equal volume of brain-heart infusion (BHI) broth was added thereto, and the suspensions were incubated at 37° C. for 2 hours.
In the […] EMA treatment, EMA was not added again to the live cell and injured cell suspensions having an EMA concentration of 0, […] The suspensions were allowed to stand under shading at 4° C. for 10 minutes, placed on ice, and irradiated for 5 minutes with a 500-W visible light at a distance of 20 cm from the suspensions.
Ethidium monoazide (EMA) was added to the live cell and injured cell suspensions of sakazakii prepared in the section “1.” at a final concentration of 0, 10, 25 or 100 μg/ml, and the suspensions were allowed to stand under shading at 4° C. for 10 minutes, placed on ice, and irradiated for 5 minutes with a 500-W visible light (FLOOD PRF: 100V, 500 W, IWASAKI ELECTRIC CO., LTD., wavelength: 500 to 700 nm) at a distance of 20 cm from the suspensions. […]

[2] = system: Salmonella enteritidis IIP 604; experiment: invA-PCR (378 bp) of EMA-treated Salmonella, band intensity of final amplified product; assay type: cell-based; settings: for bands of invA gene amplified products (electrophoresis, FIG. 4): multi-step treatment (EMA 10 μg/ml-incubation-EMA 10 μg/ml)
[3] = single-step EMA 10 μg/ml, Injured cell
[4] = single-step EMA 10 μg/ml, Live cell
[5] = single-step EMA 25 μg/ml, Injured cell
[6] = single-step EMA 100 μg/ml, Injured cell

CC[n+]1c(-c2ccccc2)c2cc(N=[N+]=[N-])ccc2c2ccc(N)cc21 [EMA, ethidium monoazide]
Ct value (mean ± SD, N = 2) [1, 3]: 27.6 ± 0.1
number of times of positive reaction in two PCR assays (i/2) [1, 3]: (2/2)
Ct value (mean ± SD, N = 2) [1, 4]: 20.8 ± 0.9
Ct value (mean ± SD, N = 2) [1, 5]: 27.3 ± 1.0
number of times of positive reaction in two PCR assays (i/2) [1, 5]: (2/2)
Ct value (mean ± SD, N = 2) ([1]; single-step EMA 25 μg/ml, Live cell): 19.9 ± 1.3
Ct value (mean ± SD, N = 2) [1, 6]: 25.2 ± 0.5
number of times of positive reaction in two PCR assays (i/2) [1, 6]: (2/2)
Ct value (mean ± SD, N = 2) ([1]; single-step EMA 100 μg/ml, Live cell): 22.2 ± 1.0
Ct value (mean ± SD, N = 2) ([1]; two-step EMA 10/10 μg/ml, Live cell): 17.1 ± 1.8
Ct value (mean ± SD, N = 2) ([1]; two-step EMA 25/10 μg/ml, Live cell): 18.5 ± 2.5
Ct value (mean ± SD, N = 2) ([1]; two-step EMA 100/10 μg/ml, Injured cell): 27.3, ND^d,e
Ct value (mean ± SD, N = 2) ([1]; two-step EMA 100/10 μg/ml, Live cell): 22.9 ± 1.0
bands of invA gene amplified products (electrophoresis, FIG. 4) ([2]; injured cells): no band was detected
bands of invA gene amplified products (electrophoresis, FIG. 4) ([2]; live cells): bands were clearly detected
Band Intensity ([2]; multi-step: EMA 10 μg/ml + Incubation (37° C., 2 hr) + EMA 10 μg/ml, Injured cell): 0.000
Band Intensity ([2]; multi-step: EMA 10 μg/ml + Incubation (37° C., 2 hr) + EMA 10 μg/ml, Live cell): 0.742
Band Intensity [2, 3]: 1.218
Band Intensity [2, 4]: 2.856
